In patent US8309726B2, “Substituted piperazine compounds of formula 8” (Council of Scientific & Industrial Research, priority 2007, dated 2012):

Columns and labels:
[1] = test system: calf thymus (CT) DNA; experiment: Thermal denaturation studies with duplex-form calf thymus DNA; format: binding; conditions: for ΔTm (° C.) after incubation at 37° C. for 0 h / ΔTm (° C.) after incubation at 37° C. for 18 h / ΔTm (° C.) after incubation at 37° C. for 36 h: [ANCD]/[DNA] molar ratio 1:5, CT-DNA 100 μM, ligand 20 μM, sodium phosphate buffer pH 7.00; for ΔTm (° C.) after incubation at 37° C. for 0 h: 0 h at 37° C.; for ΔTm (° C.) after incubation at 37° C. for 18 h: 18 h at 37° C.; for ΔTm (° C.) after incubation at 37° C. for 36 h: 36 h at 37° C.; for Course of ΔTm over incubation at 0 hr, 18 hr and 36 hr: incubation at 37° C., [ANCD]/[DNA] 1:5
Protocol: Compounds were subjected to thermal denaturation studies with duplex-form calf thymus DNA (CT-DNA) using an adaptation of a reported procedure. Working solutions in aqueous buffer (10 mM NaH2PO4/Na2HPO4, 1 mM Na2EDTA, pH 7.00+/−0.01) containing CT-DNA (100 μM in phosphate) and the PBD (20 μM) were prepared by addition of concentrated ANCD solutions in DMSO to obtain a fixed [ANCD]/[DNA] molar ratio of 1:5. The DNA-ANCD solutions were incubated at 37° C. for 0, 18, and 36 h prior to analysis. Samples were monitored at 260 nm using a Beckman DU-7400 spectrophotometer fitted with high performance temperature controller, and heating was applied at 1° C. min^−1 in the 40-90° C. range. DNA helix coil transition temperatures (Tm) were obtained from the maxima in the (dA260)/dT derivative plots. Results are given as the mean+/−standard deviation from three determinations and are corrected for the effects of DMSO co-solvent using a linear correction term. Drug-induced alterations in DNA melting behaviour are given by: ΔTm=Tm (DNA+ANCD)−Tm (DNA alone), where the Tm value for the ANCD-free CT-DNA is 69.0+/−0.01.

[2] = test system: human tumour cell lines; experiment: In vitro anticancer activity against sixty human tumour cell lines (NCI, SRB assay); format: cell-based; conditions: for Log10LC50 mean graph midpoint (MG_MID): 50% cell death; for Log10LC50 mean graph midpoint (MG_MID) / Log10GI50 mean graph midpoint (MG_MID) / Log10TGI50 mean graph midpoint (MG_MID): 48 h continuous drug exposure, SRB assay; for Log10GI50 mean graph midpoint (MG_MID): 50% cell growth inhibition; for GI50: Homo sapiens; for antiproliferative activity: against most of the tested cell lines; for Log10TGI50 mean graph midpoint (MG_MID): total cell growth inhibition
Protocol: (§1) In vitro evaluation of cytotoxic activity: Compounds were evaluated for in vitro anticancer activity against sixty human tumour cells derived from nine cancer types (colon, prostate, oral, lung, cervix and breast cancer) as shown in (Table 1, 2 and 3) 8b, 8c, 8d, and 8e, were evaluated for in vitro anticancer activity against sixty human tumour cells derived from nine cancer types (leukemia, non-small-cell lung, colon, CNS, melanoma, ovarian, prostate, and breast cancer) as shown in (Table 2 and 3). For the compound, dose response curves for each cell line were measured at a minimum of five concentrations at 10 fold dilutions. A protocol of 48 h continuous drug exposure was used and a sulforhodamine B (SRB) protein assay was used to estimate cell viability or growth. The concentration causing 50% cell growth inhibition (GI50), total cell growth inhibition (TGI 0% growth) and 50% cell death (LC50, −50% growth) compared with the control was calculated. The mean graph midpoint values of log10 TGI and log10 LC50 as well as log10 GI50 for 8a, 8b, 8c, 8d, and 8e, are listed in (Table 2 and 3).
(§2) Each cancer type represents the average of six to nine different cancer cell lines. The compounds 8a, 8b, 8c, 8d, 8e and 8f were evaluated for in vitro anticancer activity against sixty human tumour cells derived from nine cancer types (leukemia, colon, prostate, renal melanoma CNS, lung, cervix and breast cancer) as shown in Table 3. Compounds 8b, 8c, 8d and 8e show promising cytotoxicity against some cancer cell lines (Table 2). Compounds 8b, 8c, 8d and 8e have been evaluated for their in vitro cytotoxicity in selected human cancer cell lines of colon (Colo205), lung (Hop-62), cervix (SiHa), prostate (DU145, PC3), oral (DWD, HT1080), and breast (MCF7, Zr-75-1) origin. A protocol of 48 h continuous drug exposure has been used and an […] has been used to estimate cell viability or growth. The results are expressed as percent of cell growth determined relative to that of untreated control cells. […] In the breast cancer panel, the growth of BT-549, MCF-7 cell lines are 10.3, and 17.6. In the prostate cancer panel, the growth of DU-145, PC-3 cell lines are 11.3, and 19.2. The GI50 values of compound In the CNS cancer panel, the growth of SF-539, SNB-75 cell lines are […]. […] In vitro cytotoxicity of compounds 8a, and 8b in selected cancer cell lines has been illustrated in Table 3. The average GI50 values for each cancer panel of compounds 8b, 8c, 8d and 8e have been illustrated in above Table 2 and 3

[3] = test system: Leukemia cancer cell lines; experiment: In vitro cytotoxicity, leukemia panel; format: cell-based; conditions: Homo sapiens, average of six to nine different cancer cell lines, 48 h, SRB, read-out: Log GI50 (concentration in mol/L causing 50% growth inhibition) (converted)
Protocol: as §1, §2

[4] = test system: Nonsmall-cell-lung cancer cell lines; experiment: In vitro cytotoxicity, non-small-cell lung panel; format: cell-based; conditions: Homo sapiens, average of six to nine different cancer cell lines, 48 h, SRB, read-out: Log GI50 (concentration in mol/L causing 50% growth inhibition) (converted)
Protocol: as §1, §2

[5] = test system: Colon cancer cell lines; experiment: In vitro cytotoxicity, colon panel; format: cell-based; conditions: Homo sapiens, average of six to nine different cancer cell lines, 48 h, SRB, read-out: Log GI50 (concentration in mol/L causing 50% growth inhibition) (converted)
Protocol: as §1, §2

[6] = test system: CNS cancer cell lines; experiment: In vitro cytotoxicity, CNS panel; format: cell-based; conditions: Homo sapiens, average of six to nine different cancer cell lines, 48 h, SRB, read-out: Log GI50 (concentration in mol/L causing 50% growth inhibition) (converted)
Protocol: as §1, §2

[7] = test system: Melanoma cancer cell lines; experiment: In vitro cytotoxicity, melanoma panel; format: cell-based; conditions: Homo sapiens, average of six to nine different cancer cell lines, 48 h, SRB, read-out: Log GI50 (concentration in mol/L causing 50% growth inhibition) (converted)
Protocol: as §1, §2

[8] = test system: Ovarian cancer cell lines; experiment: In vitro cytotoxicity, ovarian panel; format: cell-based; conditions: Homo sapiens, average of six to nine different cancer cell lines, 48 h, SRB, read-out: Log GI50 (concentration in mol/L causing 50% growth inhibition) (converted)
Protocol: as §1, §2

[9] = test system: Renal cancer cell lines; experiment: In vitro cytotoxicity, renal panel; format: cell-based; conditions: Homo sapiens, average of six to nine different cancer cell lines, 48 h, SRB, read-out: Log GI50 (concentration in mol/L causing 50% growth inhibition) (converted)
Protocol: as §1, §2

[10] = test system: Prostate cancer cell lines; experiment: In vitro cytotoxicity, prostate panel; format: cell-based; conditions: Homo sapiens, average of six to nine different cancer cell lines, 48 h, SRB, read-out: Log GI50 (concentration in mol/L causing 50% growth inhibition) (converted)
Protocol: as §1, §2

[11] = test system: Breast cancer cell lines; experiment: In vitro cytotoxicity, breast panel; format: cell-based; conditions: Homo sapiens, average of six to nine different cancer cell lines, 48 h, SRB, read-out: Log GI50 (concentration in mol/L causing 50% growth inhibition) (converted)
Protocol: as §1, §2

[12] = sixty cell lines in nine cell panels

Molecule	ΔTm (° C.) after incubation at 37° C. for 0 h [1] [°C]	ΔTm (° C.) after incubation at 37° C. for 18 h [1] [°C]	ΔTm (° C.) after incubation at 37° C. for 36 h [1] [°C]	Course of ΔTm over incubation at 0 hr, 18 hr and 36 hr [1]	Log10LC50 mean graph midpoint (MG_MID) [2]	Log10GI50 mean graph midpoint (MG_MID) [2]	GI50 [2, 12] [µM]	antiproliferative activity [2]	Log10TGI50 mean graph midpoint (MG_MID) [2]	GI50 [3] [µM]	GI50 [4] [µM]	GI50 [5] [µM]	GI50 [6] [µM]	GI50 [7] [µM]	GI50 [8] [µM]	GI50 [9] [µM]	GI50 [10] [µM]	GI50 [11] [µM]	GI50 ([2]; fifty-seven cell lines in nine cancer cell panels) [µM]
COc1cc2c(cc1O)N=CC1CCCN1C2=O (stereo not drawn) [DC-81, reference compound]	0.3	0.7	–	–	–	–	–	–	–	–	–	–	–	–	–	–	–	–	–
COc1cc(C(=O)N2CCN(c3ccccc3OC)CC2)c(N)cc1OCc1ccccc1 [Compound 8a, [2-amino-4-(benzyloxy)-5-methoxyphenyl][4-(2-methoxyphenyl)piperazino]methanone]	1.2	1.7	2.2	gradually increased	−4.19	−5.47	< 20	nanomolar to low micromolar concentrations	−5.24	5.5	3.63	8.51	5.89	4.47	5.75	5.62	6.61	3.39	–
COc1cc(C(=O)N2CCN(c3ccccc3OC)CC2)c(N)cc1OCCCN1CCN(c2ccccc2OC)CC1 [Compound 11, (2-amino-5-methoxy-4-3-[4-(2-methoxyphenyl)piperazino]propoxyphenyl)[4-(2-methoxyphenyl)piperazino]methanone]	1.4	2.1	2.1	gradually increased	–	–	–	–	–	–	–	–	–	–	–	–	–	–	–
{2-amino-5-(methyloxy)-4[(phenylmethyl)oxy]phenyl}[4-({2-amino-5-(methyloxy)-4-[(phenylmethyl)oxy]phenyl}carbonyl)hexahydro-1-piperazinyl]methanone [Compound 8g]	1.6	2.6	2.9	gradually increased	–	–	–	–	–	–	–	–	–	–	–	–	–	–	–
COc1cc(C(=O)Nc2ccc(S(=O)(=O)c3ccc(NC(=O)c4cc(OC)c(OCc5ccccc5)cc4N)cc3)cc2)c(N)cc1OCc1ccccc1 [Compound 8h, N1-4-[(4-[2-amino-4-(benzyloxy)-5-methoxybenzoyl]aminophenyl)sulfonyl]phenyl-2-amino-4-(benzyloxy)-5-methoxybenzamide]	1.5	2.3	2.4	gradually increased	–	–	–	–	–	–	–	–	–	–	–	–	–	–	–
COc1cc(C(=O)N2CCN(c3ccccc3OC)CC2)c(NC(=O)c2cnccn2)cc1OCc1ccccc1 [Compound 8f, (4-(Benzyloxy)-5-methoxy-2-(pyrazine-2-carbamido)phenyl)(4-(2-methoxyphenyl)piperazin-1-yl)methanone]	1.3	2.1	3.0	gradually increased	–	–	–	–	–	–	–	–	–	–	–	–	–	–	–
COc1cc(C(=O)N2CCN(c3ncccn3)CC2)c(N)cc1OCc1ccccc1 [Compound 8c, [2-amino-4-(benzyloxy)-5-methoxyphenyl][4-(2-pyrimidinyl)piperazino]methanone]	1.4	1.6	2.3	gradually increased	−4.47	−5.47	–	nanomolar to low micromolar concentrations	−5.47	5.5	7.24	3.39	5.89	1.78	5.75	5.62	16.6	6.76	–
COc1cc(C(=O)NC2c3ccccc3-c3ccccc32)c(N)cc1OCc1ccccc1 [Compound 8e, N1-(9H-9-fluorenyl)-2-amino-4-(benzyloxy)-5-methoxybenzamide]	1.9	2.3	2.8	gradually increased	−4.19	−6.47	< 20	nanomolar to low micromolar concentrations	−6.06	4.27	1.38	1.7	5.5	1.78	10	15.1	0.355	≤ 0.01	< 10
